Experimental data: US20240335431A1, “1-H-PYRROLO[2,3-c]PYRIDINE COMPOUNDS” (Acerta Pharma B.V., priority 2023, published 2024)
Like-named read-outs stand apart in the source and are kept apart here.

Experiments:
[1] = test system: MOLM-13 cells; assay: Proliferation assay, MOLM-13 (CellTiter-Glo, 7 days); assay type: cell-based, human
Experimental: (§1) The anti-proliferative effect of compounds was tested in human leukaemia cell lines. The cell lines […] and MV4; 11 each harbor an MLL translocation expressing the MLL fusion proteins MLL-AF9 and MLL-AF4, respectively. Each also express the wildtype protein from the second allele. OCI-AML3 cells carrying the NPM1c gene mutation were also tested.
(§2) MOLM-13 and HEL cells were cultured in RPMI 1640 (Gibco) supplemented with 10% FBS (Gibco) and 1% Pen/Strep (Gibco). MV4; 11 cells were cultured in IMDM (Gibco) supplemented with 10% FBS (Gibco) and 1% Pen/Strep (Gibco). OCI-AML3 cells were cultured in MEMa (Gibco) supplemented with 20% FBS (Gibco) and 1% Pen/Strep (Gibco).
(§3) To assess proliferative effects, 125 MOLM-13 cells, 300 MV4; 11 cells, 75 OCI-AML3 cells, and 200 HEL cells were seeded in 40 μL media per well in 384-well ViewPlates (Perkin Elmer, 6007480). Cell seeding numbers were chosen based on growth curves to ensure linear growth throughout the experiments. Test compounds were added at 3.16-fold serial dilutions in DMSO from […] and DMSO content was normalized to 0.1%. Cells were incubated for 7 days at 37° C. and 5% CO2. A day 0 plate was seeded for each cell line and used as a standard control.
(§4) To measure cell viability, CellTiter-Glo 2.0 (Promega, G9242) luminescent growth indicator was used. 10 μL CellTiter-Glo reagent was added per well. Plates were placed on a plate shaker for 2 minutes in the dark and left to incubate off the shaker for another 8 minutes in the dark, for a total of 10 minutes. Plates were read using an EnVision plate reader (Perkin Elmer) using the Luminescence aperture and a measurement time of 0.1 second.
(§5) Data were analyzed in Genedata Screener®. IC50 values were determined by plotting % inhibition versus log compound concentration and using a one site dose response model. Raw data signals were normalized using 0.1% DMSO media only as background control, 0.1% DMSO with cells no compound as 100% viability (maximum signal), and day 0 0.1% DM with cells no compound as 0% viability (minimum signal).

[2] = test system: OCI-AML3 cells; assay: Proliferation assay, OCI-AML3 (CellTiter-Glo, 7 days); assay type: cell-based, human; settings: Homo sapiens, OCI-AML-3, 168 h
Experimental: as §1, §2, §3, §4, §5

[3] = test system: HEL cells; assay: Proliferation assay, HEL control cell line (CellTiter-Glo, 7 days); assay type: cell-based, human; settings: Homo sapiens, HEL, 168 h
Experimental: as §1, §2, §3, §4, §5

[4] = Human liver microsomes (HLMs) intrinsic clearance assay; assay type: in vitro ADME; settings: for microsomal CLint at 1 µM: human, microsomes, pH 7.4, HLM CLint
Experimental: Human liver microsomes (HLMs) were obtained from Corning (UltraPool 150 donors) at a concentration of 20 mg/mL protein. HLMs were stored at −80° C. until use and prior to use, thawed in a 37° C. water bath and then stored on wet ice. DMSO and NADPH were sourced from Solarbio S&T Co Ltd.
2 mL of 10 mM DMSO stock solutions of test compound were added to 198 mL acetonitrile to produce […] concentration. 1325 mL of 20 mg/mL HLM were added to 22260 mL of phosphate buffer to produce the HLM mixture. An 8.334 mg/mL solution of NADPH was prepared in 100 mmol/L pH 7.4 phosphate buffer.
222.5 mL of the HLM mixture and 25 mL of the 10 mM NADPH were added into the incubation plates (1 mL 96 well deep well plate from Thermo). The mixture was vortexed for 10 seconds at 1000 rpm. The incubation plate was pre-warmed in a water bath at 37° C. for 8 minutes. 2.5 mL of the […] stocks of test compound was added to initiate the reaction. The mix was vortexed for 12 seconds at 1000 rpm and incubated at 37° C. The incubation mixture (250 mL) contained 1 mg/mL HLM, 1 mmol/L NADPH and […].
The reaction was quenched by transferring 20 mL of the incubation mixture at 0.5, 5, 10, 15, 20 and 30 minutes into the quenching plate containing 100 mL of cold stop solution (acetonitrile containing internal standards). The plate was vortexed at 800 rpm for 2 minutes.
The quenching plates were centrifuged for 20 minutes at 4000 rpm and 4° C. 40 mL of the supernatant was transferred into a 96-well analysis plate containing 160 mL of water. The analysis plate was shaken at 1000 rpm for 2 minutes and the samples analysed by LC-MS/MS.
Peak areas were determined from extracted ion chromatograms. Percent parent remaining was calculated from peak area of test compound. The slope value, k, was determined by linear regression of the natural logarithm of percent parent remaining versus incubation time. The in vitro half-life (t1/2) was determined from the slope value by the equation: […]
Conversion of the in vitro half-life (min) into in vitro CLint (mL/min/mg proteins) was completed using the equation: […]

[5] = test system: MV4;11 cells; assay: Proliferation assay, MV4;11 (CellTiter-Glo, 7 days); assay type: cell-based, human; settings: read-out: MV-4-11 IC50
Experimental: as §1, §2, §3, §4, §5

[6] = Caco-2 cell monolayers intrinsic permeation assay in the presence of efflux inhibitors; assay type: in vitro ADME; settings: Caco-2, with efflux inhibitors
Source text: Caco-2 cells were obtained from American Type Culture Collection (ATCC). HEPES, penicillin, streptomycin, bovine serum albumin (BSA) were obtained from Beijing Xinjingke Biotechnology Co, Ltd. Fetal bovine serum, Hank's balanced salt solution (HBSS) and non-essential amino acids (NEAA) were purchased from Gibco. Dulbecco's Modified Eagle's Medium (DMEM) was purchased from Corning and MES from Sigma. HTS Transwell-24 permeable supports were purchased from Corning. Zosuquidar and Ko-143 were obtained from MedChemExpress and Benzbromarone from Sigma.
The Caco-2 cell culture medium consisted of DMEM with high glucose and L-glutamine supplemented with 10% FBS, 0.1 mg/mL streptomycin, 100 units of penicillin, 0.6 mg/mL kanamycin sulfate and 1×NEAA. […] culture medium was added to each Transwell insert with 800 mL added to each well of the reservoir. After incubation at 37° C. in 5% CO2 for 1 hour, the plates were ready for seeding.
The cells were cultivated in T-75 flasks at 37° C., 5% CO2, 95% relative humidity. At 80 to 90% confluence, cells were treated with trypsin/EDTA treatment until they became detached. The trypsin/EDTA was inactivated by adding excess serum containing medium. The cell suspension was centrifuged at 120 g for 10 minutes followed by resuspension of the cell pellet in seeding medium at a cell density of 7.92×10^5 cells/mL.
[…] of the resulting cell suspension was added to each well of the Transwell plate and incubated for 14 to 18 days, with medium replaced every other day. After incubation for 14 to 18 days, the cells should have reached confluence and should be tested for electrical resistance using a Millicel Epithelial Volt-Ohm measuring system (Millipore).
The cell monolayers were washed twice with pre-warmed HBSS and incubated at 37° C. for 30 minutes under gentle shaking (480 rpm).
The compound under test was presented as a 10 mM DMSO stock solution. 2 mL of the 10 mM stock was added to 8 mL DMSO to produce a 2 mM stock. 2 mL was added to 398 mL of HBSS containing 10 mM Zosuquidar, 30 mM Benzbromarone and 2 mM KO-143 to make a […] solution.
210 mL of the test compound solution was added to the apical compartment of the Transwell plate, with a 10 mL sample taken to act as the time 0 sample. The wells of the receiver (basolateral) compartment were filled with 800 mL HBSS (containing the efflux inhibitors). The plates were incubated at 37° C. with shaking at 480 rpm for 120 minutes with sampling at 45 and 120 minutes.
At each sampling time (0, 45 and 120 minutes) 10 mL was removed from the apical compartment and add to 90 mL (HBSS containing the efflux inhibitors). 100 mL was removed from each basolateral compartment. 3 volumes of cold acetonitrile containing internal standard was added to each sample and vortex mixed for 10 minutes at 100 rpm. Samples were then centrifuged at 400 rpm for 20 minutes. 50 mL of the supernatant was taken for LC/MS/MS analysis to determine compound concentration.
The apparent permeability (Papp), in units of centimetre per second, were calculated for Caco-2 drug transport using the following equation: […]
Where CR is the concentration of compound in the receiver side at the respective time point, CD is the concentration of compound in the donor side at the respective timepoint. Area is the surface area of the membrane and time is 4500 seconds (75×60 seconds).

[7] = target: T1, hERG (Homo sapiens (Human), UniProt Q12809); assay: hERG assay 2, QPatch II 48X, room temperature; assay type: cell-based; settings: hERG DUO cell line, top 200 μM
T1 sequence (Q12809 whole entry): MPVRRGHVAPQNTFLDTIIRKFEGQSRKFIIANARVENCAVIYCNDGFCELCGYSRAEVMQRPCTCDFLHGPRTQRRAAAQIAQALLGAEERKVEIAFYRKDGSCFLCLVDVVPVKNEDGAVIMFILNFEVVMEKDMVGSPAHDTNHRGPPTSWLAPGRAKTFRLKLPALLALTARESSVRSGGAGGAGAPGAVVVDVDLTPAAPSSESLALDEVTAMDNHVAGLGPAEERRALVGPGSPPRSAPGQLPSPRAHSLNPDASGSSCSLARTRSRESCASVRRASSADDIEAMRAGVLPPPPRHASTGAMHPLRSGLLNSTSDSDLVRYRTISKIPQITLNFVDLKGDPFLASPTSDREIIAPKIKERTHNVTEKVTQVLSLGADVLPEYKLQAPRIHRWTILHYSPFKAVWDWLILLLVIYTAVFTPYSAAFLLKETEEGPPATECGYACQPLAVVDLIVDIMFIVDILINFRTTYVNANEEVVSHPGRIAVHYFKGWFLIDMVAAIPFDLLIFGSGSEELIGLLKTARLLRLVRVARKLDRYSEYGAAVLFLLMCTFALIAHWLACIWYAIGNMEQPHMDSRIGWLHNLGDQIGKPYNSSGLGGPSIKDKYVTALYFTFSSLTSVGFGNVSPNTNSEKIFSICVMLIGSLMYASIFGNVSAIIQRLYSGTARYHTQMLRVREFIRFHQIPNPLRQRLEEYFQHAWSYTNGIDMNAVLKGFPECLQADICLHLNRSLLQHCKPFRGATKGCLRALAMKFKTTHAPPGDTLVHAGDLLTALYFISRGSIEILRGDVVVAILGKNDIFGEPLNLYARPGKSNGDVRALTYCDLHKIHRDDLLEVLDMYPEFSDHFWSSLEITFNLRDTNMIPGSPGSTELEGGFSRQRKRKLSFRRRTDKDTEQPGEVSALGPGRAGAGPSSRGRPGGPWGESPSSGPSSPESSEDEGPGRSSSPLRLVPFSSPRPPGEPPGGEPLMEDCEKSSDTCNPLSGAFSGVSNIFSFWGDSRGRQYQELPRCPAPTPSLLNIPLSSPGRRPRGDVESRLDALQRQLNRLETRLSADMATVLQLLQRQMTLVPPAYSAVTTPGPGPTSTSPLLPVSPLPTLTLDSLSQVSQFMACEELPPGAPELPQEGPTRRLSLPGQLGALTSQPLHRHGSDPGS
Experimental: Experiments were performed on the QPatch II 48X (Sophion Biosciences) high throughput patch clamp platform at room temperature and used single hole Qplates. hERG DUO cell line (BSys) was used. The internal patch clamp solution was KF 60 mM, KCl 70 mM, HEPES 10 mM, EGTA 10 mM, and 5 mM Mg ATP (pH7.2). After sealing and whole cell access was gained the external solution (NaCl 140 mM, KCl 4 mM, HEPES 10 mM, CaCl2 2 mM, MgCl2 1 mM, glucose 5 mM (pH 7.4) was applied twice to establish stable baseline currents. An industry standard +40/−40 mV voltage protocol was applied every 15 seconds. All compounds were tested in a 6-point cumulative assay (final DMSO concentration 0.4-2% depending on stock concentration of compounds). Compounds were dispensed from initial 10 mM or 50 mM DMSO stocks after which DMSO dilutions were undertaken with a top concentration of 200 μM tested. Solvent controls were run in all experiments in line with the DMSO % required. Only wells that passed acceptance criteria for this platform were used in this analysis (500 MegaOhm seal resistance and current size >0.2 nA). Analysis was completed in Prism Graphpad to complete a composite IC50, by plotting % inhibition versus log compound concentration and using a log(inhibitor) vs. response—Variable slope.

[8] = target: T1, hERG; assay: hERG assay 1 (standard), SyncroPatch 384PE; assay type: cell-based; settings: CHO cells, room temperature, up to 40 uM
Experimental: Experiments were performed on the SyncroPatch 384PE (Nanion Technologies) high throughput patch clamp platform at room temperature and used medium resistance chips with 4 patch holes per site. hERG-expressing Chinese hamster ovary K1 (CHO) cell line was used in assay-ready format and kept in liquid nitrogen until use. 2 vials of cells (10×10^6 cells per vial) were thawed and added to 20 ml Hepes-buffered saline solution (HBSS). HBSS comprised 140 mM NaCl, 4 mM KCl, 10 mM HEPES and 5 mM Glucose (pH 7.4). The internal patch clamp solution was KF 120 mM, KCl 20 mM, HEPES 10 mM, EGTA 10 mM, and 25 μM Escin (pH 7.2). After the initial sealing process was complete, a seal enhancer solution comprising HBSS supplemented with 10 mM CaCl2 and 1 mM MgCl2 was applied to cells. The external solution was then exchanged (4 times) for external patch clamp solution comprising NaCl 80 mM, KCl 4 mM, HEPES 10 mM, CaCl2 2 mM, MgCl2 1 mM, glucose 5 mM, and NMDG 60 mM (pH7.4). All compounds were dispensed from initial 10 mM DMSO stocks. An industry standard +60/−40 mV voltage protocol was applied every 15 seconds. Compounds were tested in a 6-point cumulative assay (final DMSO concentration 0.33%), with a concentration range of 139 nM to 40 uM. Data were analyzed in Genedata Screener®. IC50 values were determined by plotting % inhibition versus log compound concentration and using a one site dose response model. Only wells that passed acceptance criteria for this platform were used in this analysis (30 MegaOhm seal resistance, Z prime >0.4 and current size >0.2 nA).

SMILES | IC50 ([1]; Homo sapiens, MOLM-13, 168 h) | IC50 [2] | IC50 [3] | microsomal CLint at 1 µM [4] | IC50 ([5]; Homo sapiens, MV4-11, 168 h) | Papp A→B [6] | IC50 [7] | IC50 [1] | IC50 [8] | HLM CLint ([4]; 1 mg/mL HLM, NADPH) | IC50 [5]
C[C@@H]1COC[C@H](C)N1C(=O)c1cc(F)ccc1-n1cc(C(=O)C2CCN(C(=O)[C@H]3N[C@@H]4CC[C@H]3C4)CC2)c2ccncc21 [Example 35, (1-((1R,3S,4S)-2-Azabicyclo[2.2.1]heptane-3-carbonyl)piperidin-4-yl)(1-(2-((3R,5S)-3,5-dimethylmorpholine-4-carbonyl)-4-fluorophenyl)-1H-pyrrolo[2,3-c]pyridin-3-yl)methanone] | 297 nM | 412 nM | > 10000 nM | 5 µL/min/mg | 146 nM | – | – | – | – | – | –
C[C@@H]1CC[C@H](C)N1C(=O)c1cc(F)ccc1-n1cc(C(=O)C2CCN(C(=O)[C@H]3N[C@@H]4CC[C@H]3C4)CC2)c2ccncc21 [Example 32, (1-((1R,3S,4S)-2-Azabicyclo[2.2.1]heptane-3-carbonyl)piperidin-4-yl)(1-(2-((2R,5S)-2,5-dimethylpyrrolidine-1-carbonyl)-4-fluorophenyl)-1H-pyrrolo[2,3-c]pyridin-3-yl)methanone] | 154 nM | 275 nM | > 10000 nM | 18 µL/min/mg | 144 nM | 0.4 ×10⁻⁶ cm/s | – | – | – | – | –
CCN(C(=O)c1cc(F)ccc1-n1c(C)c(C(=O)C2CCN(C(=O)[C@@H]3CCC4(CC4)N3)CC2)c2ccncc21)C(C)C (single isomer, unassigned) [Example 49-1] | – | – | > 10000 nM | – | – | – | > 200000 nM | 2290 nM | > 40000 nM | >300 µL/min/mg | 2950 nM
